Paper PMC7497679, “Structure-based design, synthesis, and evaluation of the biological activity of novel phosphoroorganic small molecule IAP antagonists” (Investigational New Drugs, 2020)
Where two headings read alike, the source gives them in different places.

Assays:
XIAP BIR3 domain = target: T1, XIAP BIR3 domain (Homo sapiens, UniProt P98170); test: Fluorescence polarization inhibition (competition) assay; assay type: binding; conditions: for inhibition at 50 µM: 0.5 h, antagonist 50 µM, inhibition of protein-probe interaction; for Ki / EC50: XIAP BIR3 50 nM, fluorescent probe 4 2 nM
T1 construct: fluorescent probe 4 and the XIAP BIR3 domain (Sino Biological, Beijing, China) were used for all measurements; purchased Sino Biological, Beijing, China
Method in brief: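 BIR3 protein (50 nM) preincubated 15 min at r.t. with compound (50 μM to 0.0537 nM), then fluorescent probe 4 (2 nM) added and polarization read 30 min later (ex 484, em 528 nm). Phosphate buffer pH 7.5 with γ-globulin, NaN3, 1.4% DMSO; duplicates. EC50 from variable-slope fit, converted to Ki.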

MDA-MB-231 = test: Antiproliferative activity, SRB method; assay type: cell-based, human; conditions: Homo sapiens, MDA-MB-231, 72 h, read-out: IC50 ± SD (n = 3) MDA-MB-231
Text: (§1) MDA-MB-231 (human breast cancer), MCF10A (human, nontumorigenic mammary gland epithelial cells), A549 (human nonsmall-cell lung cancer), UMUC-3 (human bladder cancer) and LoVo (human colon cancer) cell lines were obtained from the American Type Culture Collection (ATCC; Rockville, Maryland, USA). The MCF-7 cell line (human breast cancer) was obtained from the European Collection of Cell Cultures (ECACC; Salisbury, UK). All cell lines were maintained at the Hirszfeld Institute of Immunology and Experimental Therapy (HIIET), Wrocław, Poland. MDA-MB-231 cells were cultured in RPMI1640 medium (Thermo Fisher Scientific, Warszawa, Poland) supplemented with 2 mM L-glutamine, 1 mM sodium pyruvate, and 10% fetal bovine serum (all from Sigma-Aldrich, Poznań, Poland). The MCF10A cell line was cultured in Ham’s F12 medium with glutamine (Corning) supplemented with 5% (v/v) fetal bovine serum (FBS), 5% (v/v) horse serum, 10 µg/mL insulin, 0.05 µg/mL cholera toxin, 0.5 µg/mL hydrocortisone, and 20 ng/mL hEGF (all from Sigma-Aldrich). A549 and LoVo cells were cultured in a 1:1 (v/v) mixture of RPMI1640 and Opti-MEM (both from HIIET) supplemented with 5% (v/v) FBS and 2 mM L-glutamine. The UMUC-3 cell line was cultured in high glucose DMEM (Thermo Fisher Scientific) supplemented with 10% FBS and 2 mM Lglutamine. The MCF-7 line was cultured in Eagle’s minimal essential medium (EMEM; Thermo Fisher Scientific) supplemented with 10% (v/v) FBS, 2 mM L-glutamine, 1% (v/v) nonessential amino acids, and 8 µg/mL insulin (all from Sigma-Aldrich). All culture media contained 100 µg/mL streptomycin (Sigma-Aldrich) and 100 U/mL penicillin (Polfa Tarchomin SA, Warszawa, Poland). The cells were grown at 37 °C in a humid atmosphere saturated with 5% CO2.
(§2) Antiproliferative activity was assessed in six cell lines utilizing the sulforhodamine B (SRB) method. Briefly, cells were seeded in 96-well plates (Sarstedt, Warszawa, Poland) at a density of 5 × 10^3 cells/well, and after overnight incubation, the cells were exposed to compounds at various concentrations. After 72 h, the plates were fixed with 50% (v/v) TCA (all from Sigma-Aldrich), washed with tap water, and the precipitated proteins were labeled with 0.1% (w/v) SRB solution in 1% (v/v) AcOH. Next, the plates were washed with 1% (v/v) AcOH, and the remaining SRB dye was solubilized with 10 mM unbuffered TRIS solution. The absorbance was measured using a Biotek Hybrid H4 reader (BioTek Instruments, VT, USA) at 540 nm. Crude results were analyzed using a previously described method, and the results are expressed as the IC50 (compound concentration that reduced cell growth by 50%) compared to the vehicletreated control (0.1% (v/v) DMSO). The samples were analyzed in triplicate, and each experiment was repeated at least three times.

UMUC-3 = test: Antiproliferative activity, SRB method; assay type: cell-based, human; conditions: Homo sapiens, UMUC3, 10 µM, 72 h, read-out: mean proliferation inhibition at highest concentration used, UMUC-3
Text: as §1, §2

LoVo = test: Antiproliferative activity, SRB method; assay type: cell-based, human; conditions: Homo sapiens, LoVo, 10 µM, 72 h, read-out: mean proliferation inhibition at highest concentration used, LoVo
Text: as §1, §2

MCF-7 = test: Antiproliferative activity, SRB method; assay type: cell-based, human; conditions: Homo sapiens, MCF7, 10 µM, 72 h, read-out: mean proliferation inhibition at highest concentration used, MCF-7
Text: as §1, §2

MCF-10A = test: Antiproliferative activity, SRB method; assay type: cell-based, human; conditions: Homo sapiens, MCF-10A, 10 µM, 72 h, read-out: mean proliferation inhibition at highest concentration used, MCF-10A
Text: as §1, §2

A549 = test: Antiproliferative activity, SRB method; assay type: cell-based, human; conditions: Homo sapiens, A549, 10 µM, 72 h, read-out: mean proliferation inhibition at highest concentration used, A549
Text: as §1, §2

T1 sequence (P98170 252-356 limits assumed): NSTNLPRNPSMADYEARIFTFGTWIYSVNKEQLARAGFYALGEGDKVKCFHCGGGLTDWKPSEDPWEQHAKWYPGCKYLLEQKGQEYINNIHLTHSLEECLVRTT

Compound | inhibition at 50 µM (XIAP BIR3 domain) | Ki (XIAP BIR3 domain) | EC50 (XIAP BIR3 domain; read-out: EC50) | EC50 (XIAP BIR3 domain; read-out: log EC50 (converted)) | IC50 (MDA-MB-231) | inhibition at 10 µM (UMUC-3) | inhibition at 10 µM (LoVo) | inhibition at 10 µM (MCF-7) | inhibition at 10 µM (MCF-10A) | inhibition at 10 µM (A549)
CN[C@@H](C)C(=O)N[C@H](C(=O)N1CCC[C@H]1C(=O)NC(Cc1ccccc1)P(=O)(Oc1ccccc1)Oc1ccccc1)C(C)C (stereo partly drawn) [Compound 41, diphenyl (1-((S)-1-((S)-3-methyl-2-((S)-2-(methylamino)propanamido)butanoyl)pyrrolidine-2-carboxamido)-2-phenylethyl)phosphonate] | 100% | 50 nM | 130 nM | 131 nM | 2580 ± 320 nM | 5% | 11% | 20% | 2% | 10%
CN[C@@H](C)C(=O)N[C@H](C(=O)N1CCC[C@H]1C(=O)NC(Cc1ccccc1)P(=O)(Oc1ccccc1)Oc1ccccc1)C1CCCCC1 (stereo partly drawn) [Compound 42, diphenyl (1-((S)-1-((S)-2-cyclohexyl-2-((S)-2-(methylamino)propanamido)acetyl)pyrrolidine-2-carboxamido)-2-phenylethyl)phosphonate] | 100% | 350 nM | 740 nM | 738 nM | 2460 ± 380 nM | 6% | 12% | 16% | 2% | 23%
